Results as given in US11304926B2, “Application of transient receptor potential cation channel TRPV3 in developing drug for preventing or treating psoriasis” (CHINA PHARMACEUTICAL UNIVERSITY, priority 2019, dated 2022).
Marks after values point to notes of the source that are not given here.

How the values were obtained:
[1] = system: mouse psoriasis model induced by 5% IMQ; assay: PASI score of mouse psoriasis model induced by imiquimod under drug intervention; type: in vivo; conditions: 0.1% dexamethasone s.c. 100 μL twice a day + imiquimod, n = 8, mean ± SD
Description: (§1) 16 C57BL/6 mice, with half male and half female were purchased from the Experimental Animal Center of Nanjing Medical University, wherein weights of the mice ranged from 18 g to 20 g. Back hair of the mice was shaved off, and then the mice were randomly divided into 2 groups (8 mice in each group) according to male and female genders. Before experiment, the mice were placed in a quiet environment kept away from strong light for 3 days to adapt to the environment, a ratio of an illuminating time to a dark time was 1:1, a room temperature was controlled at 25° C., a humidity was 55%, and the mice could eat and drink freely. 62.5 mg of 5% (0.1 g:2 g) imiquimod ointment (Zhuhai United Laboratories Co., Ltd.) was continuously applied to back skins of the mice for 6 days to induce a psoriasis-like lesion, while the same dose of vaseline ointment was given to the control group.
(§2) The clinical symptom of the mouse psoriasis model was evaluated by a PASI scoring standard from three indicators of erythema, scale and infiltration thickening. The scores ranged from 0 point to 4 points, and a total score was obtained by adding scores of the three indicators. The PASI scoring standard was as follows: 0 point referred to no symptom; 1 point referred to a mild degree; 2 points referred to a moderate degree; 3 points referred to a severe degree; and 4 points referred to an extremely severe degree. The PASI evaluation was conducted daily before the IMQ ointment was applied.
C57BL/6 mice, with half male and half female were purchased from the Experimental Animal Center of Nanjing Medical University, wherein weights of the mice ranged from 18 g to 20 g. The C57BL/6 mice were randomly divided into 4 groups (8 mice in each group). Mouse psoriasis models were established as described in Embodiment 2 (1). […]
Back skins of the mice were photographed and recorded on the 1st, 3rd and 5th days after modeling.

[2] = system: back skins of C57BL/6 mice; assay: PASI score of back skin of mice after continuous application of 5% imiquimod ointment (model induction); type: in vivo, mouse; conditions: 62.5 mg 5% imiquimod ointment on back skin, mean ± SD
Description: as §1, with “group. The back skins of the mice were photographed and recorded on the 1st, 3rd and 5th days of modeling and skin appearances on the 5th day of modeling were shown in FIG. 2A.” for “group.”
as §2, with “applied. It should be noted that measurement data was represented by mean±standard deviation (mean±SD), and was detected by One-Way ANOVA, wherein in the analysis results, ** represented that P<0.01, which was relative to the vaseline group.” for “applied.”

C[C@@H]1C[C@H]2[C@@H]3CCC4=CC(=O)C=C[C@]4(C)[C@@]3(F)[C@@H](O)C[C@]2(C)[C@@]1(O)C(=O)CO [Dexamethasone, dexamethasone, reference compound]
PASI score ([1]; day 1): 0.0 ± 0.0 | PASI score ([1]; day 2): 0.3 ± 0.5 | PASI score ([1]; day 3): 0.8 ± 0.5 | PASI score ([1]; day 4): 1.5 ± 1.0 | PASI score ([1]; day 5): 2.3 ± 0.9

CC(C)Cn1cnc2c(N)nc3ccccc3c21 [Imiquimod, imiquimod]
PASI score ([2]; day 1): 0.0 ± 0.0 | PASI score ([2]; day 2): 1.5 ± 0.8 | PASI score ([2]; day 3): 4.5 ± 2.2** | PASI score ([2]; day 4): 6.8 ± 1.7** | PASI score ([2]; day 5): 9.8 ± 1.3**
